The test deals with T1, interaction between biotinylated human S100A9 and human RAGE-Fc (Homo sapiens, UniProt P06702).
T1 construct: made in house; host or cells: E. coli BL21(DE3)/pET1120 (pLR757)
T1 sequence (P06702 1-114): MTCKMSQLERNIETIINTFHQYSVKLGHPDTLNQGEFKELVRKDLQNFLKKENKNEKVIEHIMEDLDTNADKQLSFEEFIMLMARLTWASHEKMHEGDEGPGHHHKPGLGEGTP
Description: AlphaScreen inhibition assay, Biot-hS100A9:hRAGE-Fc (S100A9-RAGE inhibition assay). Type of test: binding. Conditions: biot-hS100A9 and rhRAGE-Fc, Ca2+ and Zn2+ in buffer. In outline:
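Biotinylated human S100A9, in HBS-P with CaCl2 and ZnCl2, preincubated 1 h at room temperature in the dark with compound (final DMSO ≤1.25%), then combined with rhRAGE-Fc on protein A Acceptor beads plus streptavidin Donor beads (20 μg/mL each). Protein levels batch-dependent; percent inhibition from AlphaScreen signal vs DMSO-only control.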

The structures appear in SMILES notation.

As for `Cc1cc2nc3n(c2cc1C)C(NC(=O)c1ccccc1)(C(F)(F)F)C(=O)N3` (centres unmarked) [Example 14, N-[10,11-dimethyl-4-oxo-3-(trifluoromethyl)-2,5,7-triazatricyclo[6.4.0.0^2,6]dodeca-1(8),6,9,11-tetraen-3-yl]benzamide], the concentration for half-maximal inhibition (IC50) is 3.5 µM.
In the case of `O=C(CCN1CC(F)(F)C1)NC1(C(F)(F)F)C(=O)Nc2nc3cc(Cl)c(Cl)cc3n21` (centres unmarked) [Example 104, N-[10,11-dichloro-4-oxo-3-(trifluoromethyl)-2,5,7-triazatricyclo[6.4.0.0^2,6]dodeca-1(8),6,9,11-tetraen-3-yl]-3-(3,3-difluoroazetidin-1-yl)propanamide] it was 4.02 µM; in that of `CC(C)CNc1nc(C(=O)NC2(C(F)(F)F)C(=O)Nc3nc4cc(Cl)c(Cl)cc4n32)cs1` (centres unmarked) [Example 237, N-[10,11-dichloro-4-oxo-3-(trifluoromethyl)-2,5,7-triazatricyclo[6.4.0.0^2,6]dodeca-1(12),6,8,10-tetraen-3-yl]-2-[(2-methylpropyl)amino]-1,3-thiazole-4-carboxamide], 1.81 µM; in that of `COCCNc1nc(C(=O)NC2(C(F)(F)F)C(=O)Nc3nc4cc(C)c(C)cc4n32)cs1` (centres unmarked) [Example 119, N-[10,11-dimethyl-4-oxo-3-(trifluoromethyl)-2,5,7-triazatricyclo[6.4.0.0^2,6]dodeca-1(8),6,9,11-tetraen-3-yl]-2-[(2-methoxyethyl)amino]-1,3-thiazole-4-carboxamide], 1.82 µM.
Consider `CC(C)CC(=O)N1CCC(C(=O)NC2(C(F)(F)F)C(=O)Nc3nc4cc(Cl)c(Cl)cc4n32)CC1` (centres unmarked) [Example 45, N-[10,11-dichloro-4-oxo-3-(trifluoromethyl)-2,5,7-triazatricyclo[6.4.0.0^2,6]dodeca-1(12),6,8,10-tetraen-3-yl]-1-(3-methylbutanoyl)piperidine-4-carboxamide], for which the IC50 stood at 3 µM.

What is called IC50 is the concentration at which inhibition is half-maximal.
